# Measured values as given in patent US20250051391A1, “PEPTIDE INHIBITORS AND METHODS FOR INHIBITING PROTEIN AGGREGATION IN NEURONS AND NEURODEGENERATIVE DISEASES” (THE GOVERNING COUNCIL OF THE UNIVERSITY OF TORONTO, priority 2021, published 2025).
# “Also recorded” adds a separate entry of the source. Numbered stars: 1 amine (or outer) side, 2 acyl side, 3 side chain; on linkers, the order of the positions; unused ones are H or OH. Bridge positions count the residues as written; N and C are the ends. Ends that are not written are not given here. Peptide text beside a SMILES is read from it. * marks the point of attachment. Perfluorobiphenyl(4,4') = Fc1c(F)c([*:1])c(F)c(F)c1-c1c(F)c(F)c([*:2])c(F)c1F; FITC = O=C1OC2(c3ccc(O)cc3Oc3cc(O)ccc32)c2ccc(NC(=S)*)cc21; Ahx = NCCCCCC(=O)O
# T1: VPS4B, purified (His-tagged Sumo construct) (UniProt O75351 1-444)
# T1 construct: also called Vacuolar Protein Sorting 4; not shown: His tag and Sumo (pRSet B vector)
# T1 sequence (looked up): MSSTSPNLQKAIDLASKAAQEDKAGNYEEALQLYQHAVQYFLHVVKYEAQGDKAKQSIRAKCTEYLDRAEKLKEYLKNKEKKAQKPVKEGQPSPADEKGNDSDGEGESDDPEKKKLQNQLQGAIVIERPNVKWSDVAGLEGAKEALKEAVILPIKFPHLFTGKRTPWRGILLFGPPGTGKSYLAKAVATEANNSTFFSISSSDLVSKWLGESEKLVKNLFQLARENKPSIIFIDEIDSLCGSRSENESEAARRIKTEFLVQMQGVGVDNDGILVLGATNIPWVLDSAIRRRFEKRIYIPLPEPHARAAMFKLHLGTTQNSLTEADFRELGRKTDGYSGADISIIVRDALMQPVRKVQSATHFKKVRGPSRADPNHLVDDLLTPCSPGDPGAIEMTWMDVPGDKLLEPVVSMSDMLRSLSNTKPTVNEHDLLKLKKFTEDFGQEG
# B1: Stapled peptide DIEICFQLKALC (peptide)
# peptide: {FITC}-DIEICFQLKALC
# modifications: linker 5-12 via hexafluorobenzene (inferred)
# notes: also called optimized macrocycle
# B2: FITC-labeled PDpep1.3 peptide DEEIERQLKALG (peptide)
# peptide: {FITC}-DEEIERQLKALG
# notes: Synthetic peptide (LifeTein) with an N-terminal FITC moiety, used in the fluorescence polarization assays; also called DPpep1.3; FITC-Pdpep1.3
# B3: Stapled Pdpep1.4 variant DEEICRQLDALC (peptide)
# peptide: {FITC}-DEEICRQLDALC
# modifications: linker 5-12 via hexafluorobenzene (inferred)
# notes: as for B1
# B4: FITC-labelled a-syn peptide, amino acids 103-114 (NEEGAPQEGILE) (peptide)
# peptide: {FITC}-NEEGAPQEGILE
# How the values were obtained:
# [1] = test system: HEK293 cells overexpressing WT or A53T a-syn; test: Cell Titer-Glo cell viability assay in a-syn expressing cells; assay type: cell-based, human
# WT a-syn oligomers = test: Split luciferase a-syn oligomer/aggregation assay; assay type: cell-based, human; settings: cells stably expressing split luciferase a-synuclein constructs; stapled peptides
# Procedure: tet-off cells stably expressing split luciferase a-syn constructs were trypsinized from subconfluent culture and seeded in a 96-well plate at a density of 15,000 cells per well. Cells were incubated overnight at 37° C. in 5% CO2. […] After 6 h of incubation, 20 μL of cell medium was transferred to a black flat-bottomed 96-well plate. 50 μL of Working solution (Pierce Gaussia-Firefly Luciferase Dual Assay Kit, Thermo Scientific #16181) was added into each well containing cell medium. Immediately after adding the reagent, samples were read using a luminometer with a 480 nm filter.
# A53T a-syn = test: a-syn protein levels by immunoblot in HEK293 cells; assay type: cell-based, human; settings: HEK293 cells expressing A53T a-syn
# Procedure: Infected or transfected cells were scraped from 6-well dishes and lysed with lysis buffer (50 mM Tris-HCl pH7.4, 1% Nonidet P-40, 150 mM NaCl, 1 mM EDTA, 1× protease inhibitor mixture (Sigma)) for 30 min at 4° C. The insoluble pellet was removed following a 10,000 rpm spin for 5 minutes at 4° C. Lysates were analyzed by SDS-PAGE/immunoblot using 4-20% Mini-PROTEAN Tris-glycine gels (Bio-Rad) transferred to PVDF membranes and blocked in 5% milk containing PBS-Tween-20 (0.1%) for 1 h. PVDF membranes were then incubated with specified primary antibodies followed by incubation with horseradish peroxidase-conjugated secondary antibodies (Santa Cruz Biotechnology) and detected using enhanced chemiluminescence (GE Healthcare).
# VPS4 = settings: motif-domain interaction, reference (20); read-out: affinity of CHMP2B-VPS4 interaction; cited from earlier work
# [2] = test system: HEK293 cells overexpressing WT or A53T a-syn; test: Cell Titer-Glo cell viability assay in a-syn expressing cells; assay type: cell-based, human; settings: HEK293 cells overexpressing WT or A53T a-syn, with or without MG132; expressed GFP-peptide or protein
# Procedure: Oligonucleotides encoding the specific peptides were synthesized and individually cloned into the pLJM1 nGFP lentiviral vector. Cells were infected with individual constructs, and cell viability was assessed using Cell Titer-Glo Luminescent assay (Promega) at 72 h post infection.
# Cells were trypsinized from subconfluent cultures as described earlier, suspended in culture media, and then seeded into triplicate wells of a 96-well plate (100 μl well/1) at a density of 1.5×10^4 cells per well at standard culture conditions of 5% CO2 in air at 37° C. Cells were infected with lentivirus expressing peptide at an MOI of 5 for 72 h or transfected with plasmid for 72 h. Cell Titer-Glo reagent was added to each well (30 μL), according to the manufacturer's protocol and […].
# CHMP2B 1-199 truncation [3] = molecular target: T2, CHMP2B 1-199 truncation (human, UniProt Q9UQN3 1-199); test: fluorescence polarization
# T2 construct: Tags and purification of the truncated protein are not described
# T2 sequence (Q9UQN3 1-199 limits assumed): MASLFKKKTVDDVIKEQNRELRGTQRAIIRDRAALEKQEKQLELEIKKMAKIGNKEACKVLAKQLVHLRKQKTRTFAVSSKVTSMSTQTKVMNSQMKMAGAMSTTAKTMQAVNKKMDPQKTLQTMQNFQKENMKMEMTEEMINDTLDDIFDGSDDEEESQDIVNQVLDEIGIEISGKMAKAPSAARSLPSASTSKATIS
# [4] = molecular target: T3, Charged multivesicular body protein 2B (CHMP2B), full length, purified (human, UniProt Q9UQN3 2-213); test: fluorescence polarization
# T3 construct: mature; not shown: tag from the pET-DEST42 vector used for Ni-NTA purification
# T3 sequence (Q9UQN3 2-213): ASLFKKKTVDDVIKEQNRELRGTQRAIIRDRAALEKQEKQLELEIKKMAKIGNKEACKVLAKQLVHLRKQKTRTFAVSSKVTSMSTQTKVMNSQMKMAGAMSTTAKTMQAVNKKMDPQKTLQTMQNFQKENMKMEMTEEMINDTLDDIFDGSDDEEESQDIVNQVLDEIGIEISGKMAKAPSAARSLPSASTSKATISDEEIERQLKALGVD
# [5] = molecular target: T1, VPS4B, purified (His-tagged Sumo …); test: fluorescence polarization (FIG. 8)
# [6] = molecular target: T3, Charged multivesicular body protein 2B …; test: fluorescence polarization, 50 nM FITC-peptide, CHMP2B titrated
# [7] = molecular target: T1, VPS4B, purified (His-tagged Sumo …); test: fluorescence polarization, FITC-peptide against VPS4B
# [8] = molecular target: T3, Charged multivesicular body protein 2B …; test: fluorescence polarization, stapled peptide against full length CHMP2B
# CHMP2B 1-199 truncation [9] = molecular target: T2, CHMP2B 1-199 truncation; test: fluorescence polarization, stapled peptide against truncated CHMP2B (1-199)
# [10] = molecular target: T3, Charged multivesicular body protein 2B …; test: fluorescence polarization, FITC-labelled a-syn peptide, CHMP2B titrated
molecule,measurement,setting,value
"CC[C@H](C)[C@H](NC(=O)[C@H](CCC(=O)O)NC(=O)[C@H](CCC(=O)O)NC(=O)[C@H](CC(=O)O)NC(=O)CCCCCNC(=S)Nc1ccc2c(c1)C(=O)OC21c2ccc(O)cc2Oc2cc(O)ccc21)C(=O)N[C@H]1CSc2c(F)c(F)c(c(F)c2F)-c2c(F)c(F)c(c(F)c2F)SC[C@@H](C(N)=O)NC(=O)[C@H](CC(C)C)NC(=O)[C@H](C)NC(=O)[C@H](CC(=O)O)NC(=O)[C@H](CC(C)C)NC(=O)[C@H](CCC(N)=O)NC(=O)[C@H](CCCNC(=N)N)NC1=O ({FITC-Ahx}-DEEICRQLDALC-NH2; linker 5-12 via Perfluorobiphenyl(4,4'); N-terminus and C-terminus assumed)","A53T cell viability, stapled peptides incubated",[1],increase in A53T cell viability
same,a-syn aggregation measured by luciferase activity,WT a-syn oligomers,significant reduction in a-syn aggregation
DEEYCRQWKALC (cysteine staple) [stapled macrocycle; cysteines introduced at the locations to be stapled],"A53T cell viability, stapled peptides incubated",[1],increase in A53T cell viability
same,a-syn aggregation measured by luciferase activity,WT a-syn oligomers,significant reduction in a-syn aggregation
"full-length CHMP2B: Charged Multivesicular Body Protein 2B, member of ESCRT-III, uniprot ID Q9UQN3",a-syn protein levels by immunoblot,A53T a-syn,reduced a-syn protein levels; also recorded: reduces a-syn levels
same,Kd,VPS4,178 µM
same,cell viability / cytoprotective effect,[2],rescues a-syn cytotoxicity
"CHMP2B (1-199): truncated CHMP2B removing the MIM, residues 1-199",a-syn protein levels by immunoblot,A53T a-syn,reduction in a-syn levels
same,cell viability / cytoprotective effect,[2],rescues toxicity
CHMP2B (1-178): shorter CHMP2B truncation (1-178) implicated in FTD,cell viability / cytoprotective effect,[2],increased toxicity
DIEICFQLKALC (cysteine staple) [stapled macrocycle; cysteines introduced at the locations to be stapled],"A53T cell viability, stapled peptides incubated",[1],increase in A53T cell viability
same,a-syn aggregation measured by luciferase activity,WT a-syn oligomers,significant reduction in a-syn aggregation
B1,binding result,CHMP2B 1-199 truncation [3],binds
same,binding result,[4],binds
B2,Kd,[5],> 100 µM
same,Kd,[6],1.8 µM
same,Kd,[7],~200 µM
B3,Kd,[8],0.6 µM
same,Kd,CHMP2B 1-199 truncation [9],0.06 µM
B4,Kd,[10],0.64 µM
